Results from patent US9708247B2, “Modulators of the eIF2alpha pathway” (The Regents of the University of California, priority 2013, dated 2017).

Columns and labels:
Format in all cases: cell-based, human
[1] = tested on: ATF4 luciferase reporter; assay: ATF4 luciferase reporter assay (Cell-luc) in HEK293T cells; conditions: ER stressor alone, 384 well format
[2] = tested on: global translation; assay: Metabolic labeling (35S-methionine incorporation) in HEK293T cells; conditions: 100 nM thapsigargin alone
Protocol: HEK293T cells were seeded on 12 well plates, allowed to recover overnight and treated for the indicated times with the indicated compounds. The cells were subsequently switched to media lacking methionine and cysteine supplemented with the indicated compounds and 50 μCi of ^35S-methionine (Perkin Elmer) for 20 min. Cells were lysed by addition of SDS-PAGE loading buffer. Lysates were sonicated and equal amounts were loaded on SDS-PAGE gels (BioRad). The gel was dried and radioactive methionine incorporation was detected by exposure to a phosphor-screen and visualized with a Typhoon 9400 Variable Mode Imager (GE Healthcare).

[3] = tested on: eIF2α (p-Ser51); assay: AlphaScreen SureFire eIF2α(p-Ser51) assay in U2OS cells; conditions: U2OS cells, ER stressor alone, after 120 minutes
Protocol: U2OS cells were plated on 96 well plates and left to recover overnight. Cells were treated with either with 2 μg/ml tunicamycin or 100 nM thapsigargin in the presence or absence of 100 nM ISRIB or with ISRIB alone for the indicated and the level of eIF2α phosphorylation was determined using the AlphaScreen SureFire eIF2α(p-Ser51) Assay kit (Perkin Elmer) following the manufacturer's recommendations. Plates were read in an Envision Xcite Multilabel Reader using the standard Alpha Screen settings.

SMILES: C/C=C(/C)C(=O)O[C@H]1C(C)=C2[C@H]([C@@H]1OC(=O)CCCCCCC)[C@@](C)(OC(C)=O)C[C@H](OC(=O)CCC)[C@@]1(O)[C@H]2OC(=O)[C@@]1(C)O [Thapsigargin, thapsigargin, reference compound]
- induction in luciferase activity [1]: 4.9 fold
- drop in translation [2]: 40%
- increase of eIF2α phosphorylation [3]: 7 fold
